Measured values from PubChem BioAssay (NCI).
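48-hour exposure; five concentrations; linearly interpolated endpoints. GI50: concentration for 50% inhibition of growth. At the TGI there is no net growth.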

Experiments:
Assay in all cases: NCI tumour cell line growth inhibition, 48 h
[1] = test system: 786-0 renal
[2] = test system: A549 NSCLC
[3] = test system: ACHN renal
[4] = test system: BT-549 breast
[5] = test system: CAKI-1 renal
[6] = test system: CCRF-CEM leukemia
[7] = test system: COLO 205 colon
[8] = test system: DU-145 prostate
[9] = test system: EKVX NSCLC
[10] = test system: HCC-2998 colon
[11] = test system: HCT-116 colon
[12] = test system: HCT-15 colon
[13] = test system: HOP-62 NSCLC
[14] = test system: HOP-92 NSCLC
[15] = test system: HS 578T breast
[16] = test system: HT29 colon
[17] = test system: IGROV1 ovarian
[18] = test system: K-562 leukemia
[19] = test system: KM12 colon
[20] = test system: LOX IMVI melanoma
[21] = test system: M14 melanoma
[22] = test system: MCF7 breast
[23] = test system: MDA-MB-231 breast
[24] = test system: MDA-MB-435
[25] = test system: MOLT-4 leukemia
[26] = test system: NCI-H226 lung
[27] = test system: NCI-H23 lung
[28] = test system: NCI-H460 lung
[29] = test system: NCI-H522 lung
[30] = test system: NCI/ADR-RES ovarian
[31] = test system: OVCAR-3 ovarian
[32] = test system: OVCAR-4 ovarian
[33] = test system: OVCAR-5 ovarian
[34] = test system: OVCAR-8 ovarian
[35] = test system: PC-3 prostate
[36] = test system: RPMI-8226 leukemia
[37] = test system: RXF 393 renal
[38] = test system: SF-268 CNS
[39] = test system: SF-295 CNS
[40] = test system: SF-539 CNS
[41] = test system: SK-MEL-2 melanoma
[42] = test system: SK-MEL-28 melanoma
[43] = test system: SK-MEL-5 melanoma
[44] = test system: SK-OV-3 ovarian
[45] = test system: SN12C renal
[46] = test system: SNB-19 CNS
[47] = test system: SNB-75 CNS
[48] = test system: SW-620 colon
[49] = test system: T-47D breast
[50] = test system: TK-10 renal
[51] = test system: U251 CNS
[52] = test system: UACC-257 melanoma
[53] = test system: UACC-62 melanoma
[54] = test system: UO-31 renal
[55] = test system: A498 renal
[56] = test system: HL-60(TB) leukemia

C=CCC(N[C@H](CO)c1ccccc1)c1cn(C(=O)OCC)c2ccccc12 (stereo partly drawn)
GI50 [1]: 15.2 µM
TGI [1]: 28.9 µM
GI50 [2]: 13.1 µM
TGI [2]: 27.6 µM
GI50 [3]: 16.1 µM
TGI [3]: 30.2 µM
GI50 [4]: 19.8 µM
TGI [4]: 39 µM
GI50 [5]: 12.4 µM
TGI [5]: 26.9 µM
GI50 [6]: 44 µM
TGI [6]: > 100 µM
GI50 [7]: 19.5 µM
TGI [7]: 65.6 µM
GI50 [8]: 19.3 µM
TGI [8]: 37.3 µM
GI50 [9]: 17.5 µM
TGI [9]: 37.3 µM
GI50 [10]: 15.8 µM
TGI [10]: 29.6 µM
GI50 [11]: 14.7 µM
TGI [11]: 28 µM
GI50 [12]: 18.6 µM
TGI [12]: 39.4 µM
GI50 [13]: 14.5 µM
TGI [13]: 27.9 µM
GI50 [14]: 18 µM
TGI [14]: 35.7 µM
GI50 [15]: 19.4 µM
TGI [15]: 46 µM
GI50 [16]: 31 µM
TGI [16]: > 100 µM
GI50 [17]: 8.46 µM
TGI [17]: 26.3 µM
GI50 [18]: 8.51 µM
TGI [18]: 33.2 µM
GI50 [19]: 16.7 µM
TGI [19]: 34.8 µM
GI50 [20]: 15.9 µM
TGI [20]: 30.1 µM
GI50 [21]: 14.3 µM
TGI [21]: 28.2 µM
GI50 [22]: 35.2 µM
TGI [22]: > 100 µM
GI50 [23]: 15.7 µM
TGI [23]: 31.3 µM
GI50 [24]: 18 µM
TGI [24]: 33.4 µM
GI50 [25]: 17.8 µM
TGI [25]: 41.6 µM
GI50 [26]: 15.2 µM
TGI [26]: 31 µM
GI50 [27]: 15.8 µM
TGI [27]: 32 µM
GI50 [28]: 37.3 µM
TGI [28]: > 100 µM
GI50 [29]: 15.2 µM
TGI [29]: 32.1 µM
GI50 [30]: 15.9 µM
TGI [30]: 32.4 µM
GI50 [31]: 11.6 µM
TGI [31]: 25 µM
GI50 [32]: 37.3 µM
TGI [32]: > 100 µM
GI50 [33]: 16.3 µM
TGI [33]: 33.8 µM
GI50 [34]: 13.4 µM
TGI [34]: 27.7 µM
GI50 [35]: 23.2 µM
TGI [35]: 69.3 µM
GI50 [36]: 70.2 µM
TGI [36]: > 100 µM
GI50 [37]: 0.98 µM
TGI [37]: 21.3 µM
GI50 [38]: 32.1 µM
TGI [38]: 89.9 µM
GI50 [39]: 15.4 µM
TGI [39]: 29.3 µM
GI50 [40]: 18.6 µM
TGI [40]: 35.1 µM
GI50 [41]: 18.4 µM
TGI [41]: 42 µM
GI50 [42]: 28.4 µM
TGI [42]: 66.1 µM
GI50 [43]: 17.5 µM
TGI [43]: 32.8 µM
GI50 [44]: 31.3 µM
TGI [44]: > 100 µM
GI50 [45]: 18.3 µM
TGI [45]: 32.7 µM
GI50 [46]: 22.3 µM
TGI [46]: 66.9 µM
GI50 [47]: 23 µM
TGI [47]: 74.3 µM
GI50 [48]: 25.6 µM
TGI [48]: 52.2 µM
GI50 [49]: 25.1 µM
TGI [49]: > 100 µM
GI50 [50]: 16.5 µM
TGI [50]: 34 µM
GI50 [51]: 17.8 µM
TGI [51]: 33.2 µM
TGI [52]: 18 µM
GI50 [53]: 16.4 µM
TGI [53]: 30.6 µM
GI50 [54]: 16.1 µM
TGI [54]: 32.5 µM

CO[C@@H]1CC(=O)C2(CC(=O)O[C@@H]2/C=C(\C)CCC=C(C)C)C[C@@H]1O (stereo partly drawn)
GI50 [1]: 0.761 µM
TGI [1]: 1.58 µM
GI50 [55]: 1.66 µM
TGI [55]: 4.63 µM
GI50 [2]: 1.65 µM
TGI [2]: > 12.2 µM
GI50 [3]: 0.817 µM
TGI [3]: 1.78 µM
GI50 [4]: 0.492 µM
TGI [4]: 2.34 µM
GI50 [5]: 0.87 µM
TGI [5]: 2.74 µM
GI50 [7]: 1.07 µM
TGI [7]: 2.11 µM
GI50 [8]: 0.577 µM
TGI [8]: 1.55 µM
GI50 [9]: 1.42 µM
TGI [9]: 4.51 µM
GI50 [10]: 0.214 µM
TGI [10]: 0.814 µM
GI50 [11]: 0.489 µM
TGI [11]: 1.14 µM
GI50 [12]: 0.56 µM
TGI [12]: 1.55 µM
GI50 [56]: 0.409 µM
TGI [56]: 2.32 µM
GI50 [13]: 1.06 µM
TGI [13]: 2.64 µM
GI50 [14]: 0.84 µM
TGI [14]: 2.97 µM
GI50 [15]: 4.74 µM
TGI [15]: > 50 µM
GI50 [16]: 1.35 µM
TGI [16]: > 50 µM
GI50 [17]: 1.09 µM
TGI [17]: 4.03 µM
GI50 [18]: 0.829 µM
TGI [18]: > 50 µM
GI50 [19]: 1.03 µM
TGI [19]: 3.97 µM
GI50 [20]: 0.634 µM
TGI [20]: 1.57 µM
GI50 [21]: 0.709 µM
TGI [21]: 1.55 µM
GI50 [22]: 0.199 µM
TGI [22]: 1.17 µM
GI50 [23]: 0.642 µM
TGI [23]: 1.66 µM
GI50 [24]: 0.803 µM
TGI [24]: 3.59 µM
GI50 [25]: 0.233 µM
TGI [25]: > 50 µM
GI50 [26]: 0.755 µM
TGI [26]: 2.05 µM
GI50 [27]: 0.358 µM
TGI [27]: 1.14 µM
GI50 [28]: 0.744 µM
GI50 [29]: 1.82 µM
TGI [29]: > 50 µM
GI50 [30]: 0.487 µM
TGI [30]: 1.51 µM
GI50 [31]: 0.839 µM
TGI [31]: 2.28 µM
GI50 [33]: 0.769 µM
TGI [33]: 1.96 µM
GI50 [34]: 1.32 µM
TGI [34]: > 10.5 µM
GI50 [35]: 0.378 µM
TGI [35]: 1.44 µM
GI50 [36]: 0.118 µM
TGI [36]: 0.432 µM
GI50 [37]: 0.818 µM
TGI [37]: 2.92 µM
GI50 [38]: 1.18 µM
TGI [38]: 4.74 µM
GI50 [39]: 1.43 µM
TGI [39]: > 11.7 µM
GI50 [40]: 0.502 µM
TGI [40]: 1.56 µM
GI50 [41]: 1.39 µM
TGI [41]: 4.88 µM
GI50 [42]: 0.83 µM
TGI [42]: 1.86 µM
GI50 [43]: 0.913 µM
TGI [43]: 2.13 µM
GI50 [44]: 1.62 µM
TGI [44]: 5.3 µM
GI50 [45]: 0.705 µM
TGI [45]: 1.64 µM
GI50 [46]: 1.23 µM
TGI [46]: 4.11 µM
GI50 [47]: 1.2 µM
TGI [47]: 3.66 µM
GI50 [48]: 0.754 µM
TGI [48]: > 50 µM
GI50 [49]: 0.522 µM
TGI [49]: 1.26 µM
GI50 [50]: 1.26 µM
TGI [50]: 3.35 µM
GI50 [51]: 0.672 µM
TGI [51]: 1.4 µM
GI50 [52]: 0.883 µM
TGI [52]: 2.52 µM
GI50 [53]: 0.812 µM
TGI [53]: 1.71 µM
GI50 [54]: 1.19 µM
